Test results: US20120245137A1 (Zalicus Pharmaceuticals Ltd., priority 2009, published 2012)

What was measured:
Type in all cases: cell-based
[1] = target: human α1G T-type channels (Homo sapiens, UniProt O43497); test: T-type calcium channel block, whole cell patch clamp, α1G; details: HEK cells stably expressing human α1G; mainly non-inactivated protocol; values above 10,000 nM represented as 10000
How it was run: (§1)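 Using standard patch-clamp, T-type currents were recorded from stably transfected human α1G or α1H HEK 293 cells. Separate non-inactivating and inactivation voltage protocols distinguished resting from voltage-dependent block by locally applied compound in 0.1-0.01% DMSO.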

[2] = target: N-type calcium channel subunits (α1B, α2δ, and β3a) (Homo sapiens, UniProt Q00975); test: Block of Cav2.2 channel, whole cell voltage clamp, manual and PatchXpress; details: Table 5; table follows Assay Example 3 (whole cell voltage clamp / PatchXpress); assay not given
How it was run: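 Percent block taken as current amplitude ratio with versus without compound, applied in rising doses; IC50 fitted where one cell received multiple doses. Protocol: 50 ms pulses to +20 mV at 0.067 Hz from […] or −90 mV holding; P/n leak subtraction, no junction-potential correction; manual and PatchXpress recordings.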

[3] = target: human α1H T-type channels (Homo sapiens, UniProt O95180); test: T-type calcium channel block, whole cell patch clamp, α1H; details: HEK cells stably expressing human α1H; mainly non-inactivated protocol; values above 10,000 nM represented as 10000
How it was run: as §1

Chain of human α1H T-type channels (O95180 whole entry): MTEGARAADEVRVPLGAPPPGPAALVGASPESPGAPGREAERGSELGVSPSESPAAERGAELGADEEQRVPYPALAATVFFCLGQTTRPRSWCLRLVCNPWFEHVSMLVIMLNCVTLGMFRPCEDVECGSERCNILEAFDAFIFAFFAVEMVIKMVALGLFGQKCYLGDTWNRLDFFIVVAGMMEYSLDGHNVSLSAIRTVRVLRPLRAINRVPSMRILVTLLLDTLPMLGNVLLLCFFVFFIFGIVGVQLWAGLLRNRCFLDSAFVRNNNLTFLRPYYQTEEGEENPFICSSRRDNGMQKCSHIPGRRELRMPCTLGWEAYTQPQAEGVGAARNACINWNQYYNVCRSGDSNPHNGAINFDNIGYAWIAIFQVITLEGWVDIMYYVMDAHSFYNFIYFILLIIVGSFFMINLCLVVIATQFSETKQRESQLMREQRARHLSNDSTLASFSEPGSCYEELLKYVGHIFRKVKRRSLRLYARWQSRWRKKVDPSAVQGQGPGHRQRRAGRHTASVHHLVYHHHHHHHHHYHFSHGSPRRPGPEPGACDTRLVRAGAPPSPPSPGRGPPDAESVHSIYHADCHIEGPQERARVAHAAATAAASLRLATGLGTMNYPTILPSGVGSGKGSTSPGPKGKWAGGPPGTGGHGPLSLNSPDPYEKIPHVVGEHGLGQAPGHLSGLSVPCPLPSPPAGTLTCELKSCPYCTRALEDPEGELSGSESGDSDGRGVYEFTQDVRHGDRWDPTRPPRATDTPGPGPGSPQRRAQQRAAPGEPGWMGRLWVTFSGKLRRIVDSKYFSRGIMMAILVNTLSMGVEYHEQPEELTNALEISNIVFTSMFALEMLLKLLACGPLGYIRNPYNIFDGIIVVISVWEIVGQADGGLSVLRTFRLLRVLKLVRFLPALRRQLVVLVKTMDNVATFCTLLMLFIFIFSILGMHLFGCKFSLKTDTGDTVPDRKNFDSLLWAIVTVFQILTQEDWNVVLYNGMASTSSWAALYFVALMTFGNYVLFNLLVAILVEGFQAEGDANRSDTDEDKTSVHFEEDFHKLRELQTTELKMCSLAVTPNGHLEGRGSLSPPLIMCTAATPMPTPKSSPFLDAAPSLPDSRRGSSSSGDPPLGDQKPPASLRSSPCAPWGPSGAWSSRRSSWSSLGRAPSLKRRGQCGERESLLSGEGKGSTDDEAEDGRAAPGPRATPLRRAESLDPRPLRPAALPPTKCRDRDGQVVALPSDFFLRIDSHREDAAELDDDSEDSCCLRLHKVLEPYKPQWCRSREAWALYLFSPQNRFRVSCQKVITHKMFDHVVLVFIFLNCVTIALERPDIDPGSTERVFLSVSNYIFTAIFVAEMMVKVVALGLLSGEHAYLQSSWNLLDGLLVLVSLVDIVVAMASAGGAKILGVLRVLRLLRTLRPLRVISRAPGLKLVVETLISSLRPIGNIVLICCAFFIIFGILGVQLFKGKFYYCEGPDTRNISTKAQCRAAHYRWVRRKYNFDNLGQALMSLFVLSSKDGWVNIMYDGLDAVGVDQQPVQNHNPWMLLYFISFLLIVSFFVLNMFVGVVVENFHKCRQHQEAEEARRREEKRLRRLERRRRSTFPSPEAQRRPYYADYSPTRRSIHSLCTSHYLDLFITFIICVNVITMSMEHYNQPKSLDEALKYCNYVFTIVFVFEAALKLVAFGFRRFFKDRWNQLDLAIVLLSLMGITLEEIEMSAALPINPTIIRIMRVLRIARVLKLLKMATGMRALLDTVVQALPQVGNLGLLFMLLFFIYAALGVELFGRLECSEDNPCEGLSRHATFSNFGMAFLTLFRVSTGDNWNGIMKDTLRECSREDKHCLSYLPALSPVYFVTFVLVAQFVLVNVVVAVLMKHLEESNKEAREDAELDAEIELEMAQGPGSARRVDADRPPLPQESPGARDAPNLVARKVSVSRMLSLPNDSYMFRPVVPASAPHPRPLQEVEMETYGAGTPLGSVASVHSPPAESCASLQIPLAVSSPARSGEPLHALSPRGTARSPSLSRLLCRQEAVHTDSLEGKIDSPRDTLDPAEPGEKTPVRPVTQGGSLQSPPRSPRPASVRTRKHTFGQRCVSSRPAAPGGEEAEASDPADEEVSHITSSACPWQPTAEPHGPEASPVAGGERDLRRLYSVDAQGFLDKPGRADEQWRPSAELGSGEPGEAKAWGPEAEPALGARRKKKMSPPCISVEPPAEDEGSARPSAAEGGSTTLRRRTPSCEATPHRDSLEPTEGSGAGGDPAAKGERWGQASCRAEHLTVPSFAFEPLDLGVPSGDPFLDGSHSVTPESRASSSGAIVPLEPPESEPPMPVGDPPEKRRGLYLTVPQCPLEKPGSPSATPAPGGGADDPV
Chain of human α1G T-type channels (O43497 whole entry): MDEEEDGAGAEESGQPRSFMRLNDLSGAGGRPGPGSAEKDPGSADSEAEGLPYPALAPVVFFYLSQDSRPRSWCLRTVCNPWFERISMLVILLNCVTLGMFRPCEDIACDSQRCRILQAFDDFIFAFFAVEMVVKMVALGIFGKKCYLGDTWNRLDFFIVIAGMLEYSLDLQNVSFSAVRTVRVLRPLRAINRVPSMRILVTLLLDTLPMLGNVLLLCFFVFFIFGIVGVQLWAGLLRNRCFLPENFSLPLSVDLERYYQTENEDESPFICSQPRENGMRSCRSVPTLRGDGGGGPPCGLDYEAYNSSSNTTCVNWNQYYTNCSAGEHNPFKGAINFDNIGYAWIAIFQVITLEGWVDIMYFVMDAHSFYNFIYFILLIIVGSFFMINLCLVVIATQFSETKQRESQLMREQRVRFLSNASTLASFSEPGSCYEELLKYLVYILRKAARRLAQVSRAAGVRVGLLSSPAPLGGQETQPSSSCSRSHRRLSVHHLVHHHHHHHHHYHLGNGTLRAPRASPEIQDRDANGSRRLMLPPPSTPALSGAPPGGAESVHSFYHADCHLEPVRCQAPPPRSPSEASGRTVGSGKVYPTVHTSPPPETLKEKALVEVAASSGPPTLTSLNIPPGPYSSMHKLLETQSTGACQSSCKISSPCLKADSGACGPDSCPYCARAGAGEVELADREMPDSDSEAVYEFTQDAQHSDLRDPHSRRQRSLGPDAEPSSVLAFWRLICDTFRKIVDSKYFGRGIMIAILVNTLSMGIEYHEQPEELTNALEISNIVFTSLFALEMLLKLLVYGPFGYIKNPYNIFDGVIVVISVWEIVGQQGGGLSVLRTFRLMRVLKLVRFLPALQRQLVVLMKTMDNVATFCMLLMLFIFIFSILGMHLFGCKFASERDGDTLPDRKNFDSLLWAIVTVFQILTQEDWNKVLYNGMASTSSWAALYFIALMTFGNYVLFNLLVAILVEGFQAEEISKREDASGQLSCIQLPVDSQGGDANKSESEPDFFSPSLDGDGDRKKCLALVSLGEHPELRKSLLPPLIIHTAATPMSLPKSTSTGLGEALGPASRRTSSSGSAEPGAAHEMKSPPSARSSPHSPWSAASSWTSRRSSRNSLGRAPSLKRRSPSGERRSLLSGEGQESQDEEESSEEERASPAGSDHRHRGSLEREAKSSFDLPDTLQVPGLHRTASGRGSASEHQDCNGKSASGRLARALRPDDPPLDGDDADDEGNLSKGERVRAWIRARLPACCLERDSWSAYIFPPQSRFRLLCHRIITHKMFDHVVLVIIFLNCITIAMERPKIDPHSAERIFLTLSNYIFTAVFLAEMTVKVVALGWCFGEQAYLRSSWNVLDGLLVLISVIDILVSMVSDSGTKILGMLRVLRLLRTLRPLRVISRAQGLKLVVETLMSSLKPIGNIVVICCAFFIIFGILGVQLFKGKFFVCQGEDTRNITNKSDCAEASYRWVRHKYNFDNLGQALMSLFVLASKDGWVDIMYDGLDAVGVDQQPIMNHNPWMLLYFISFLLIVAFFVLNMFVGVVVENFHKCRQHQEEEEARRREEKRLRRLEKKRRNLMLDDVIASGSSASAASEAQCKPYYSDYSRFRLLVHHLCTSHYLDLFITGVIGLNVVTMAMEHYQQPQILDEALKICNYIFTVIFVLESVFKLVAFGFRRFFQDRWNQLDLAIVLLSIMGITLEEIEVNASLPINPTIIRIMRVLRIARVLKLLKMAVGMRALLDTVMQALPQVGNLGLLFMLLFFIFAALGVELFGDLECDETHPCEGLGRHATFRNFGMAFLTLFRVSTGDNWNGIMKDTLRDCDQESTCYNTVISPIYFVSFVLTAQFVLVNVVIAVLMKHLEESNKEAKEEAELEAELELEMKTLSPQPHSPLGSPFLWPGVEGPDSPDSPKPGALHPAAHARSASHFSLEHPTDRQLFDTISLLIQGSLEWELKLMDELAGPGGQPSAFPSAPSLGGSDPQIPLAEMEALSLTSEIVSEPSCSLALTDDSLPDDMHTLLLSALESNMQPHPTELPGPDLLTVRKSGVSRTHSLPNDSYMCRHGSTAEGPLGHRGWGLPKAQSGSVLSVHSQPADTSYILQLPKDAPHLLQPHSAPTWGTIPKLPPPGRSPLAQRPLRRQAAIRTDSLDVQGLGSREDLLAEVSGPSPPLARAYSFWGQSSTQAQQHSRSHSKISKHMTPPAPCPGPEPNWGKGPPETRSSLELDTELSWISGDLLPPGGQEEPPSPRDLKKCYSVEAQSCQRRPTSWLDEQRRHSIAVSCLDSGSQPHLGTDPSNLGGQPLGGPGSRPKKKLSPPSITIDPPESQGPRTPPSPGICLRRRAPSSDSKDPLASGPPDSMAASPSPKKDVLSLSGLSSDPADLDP

| Structure (SMILES) | IC50 [1] [nM] | IC50 [2] [nM] | IC50 [3] [nM] |
| --- | --- | --- | --- |
| O=C(NC[C@H]1C[C@H](S(=O)(=O)c2cccc(C(F)(F)F)c2)C1)c1ccc(Cl)c(Cl)c1 [Compound 369, 3,4-dichloro-N-(((1R,3R)-3-(3-(trifluoromethyl)phenylsulfonyl)cyclobutyl)methyl)benzamide] | > 10000 | 160 | > 10000 |
| O=C(NC[C@H]1C[C@H](S(=O)(=O)c2cccc(C(F)(F)F)c2)C1)c1cc(F)cc(Cl)c1 [Compound 370, 3-chloro-5-fluoro-N-(((1R,3R)-3-(3-(trifluoromethyl)phenylsulfonyl)cyclobutyl)methyl)benzamide] | 680 | 290 | 640 |
| O=C(NC[C@H]1C[C@H](S(=O)(=O)c2cccc(C(F)(F)F)c2)C1)c1cnc(C(F)(F)F)nc1 [Compound 371, 2-(trifluoromethyl)-N-(((1R,3R)-3-(3-(trifluoromethyl)phenylsulfonyl)cyclobutyl)methyl)pyrimidine-5-carboxamide] | 1060 | 1160 | 660 |
| O=C(NC[C@H]1C[C@H](S(=O)(=O)c2cccc(C(F)(F)F)c2)C1)c1cc(C(F)(F)F)ccn1 [Compound 372, 4-(trifluoromethyl)-N-(((1R,3R)-3-(3-(trifluoromethyl)phenylsulfonyl)cyclobutyl)methyl)picolinamide] | 7170 | 260 | 9630 |
| O=C(NC[C@H]1C[C@H](S(=O)(=O)c2cccc(C(F)(F)F)c2)C1)c1ccc(OC(F)(F)F)cc1 [Compound 373, 4-(trifluoromethoxy)-N-(((1R,3R)-3-(3-(trifluoromethyl)phenylsulfonyl)cyclobutyl)methyl)benzamide] | 820 | 250 | 610 |
| O=C(NC[C@H]1C[C@@H](S(=O)(=O)c2cccc(C(F)(F)F)c2)C1)c1ccc(F)c(C(F)(F)F)c1 [Compound 377, 4-fluoro-3-(trifluoromethyl)-N-(((1S,3S)-3-(3-(trifluoromethyl)phenylsulfonyl)cyclobutyl)methyl)benzamide] | 2340 | 460 | 1040 |
| Cn1nc(C(F)(F)F)cc1C(=O)NC[C@H]1C[C@@H](S(=O)(=O)c2cccc(C(F)(F)F)c2)C1 [Compound 378, 1-methyl-3-(trifluoromethyl)-N-(((1S,3S)-3-(3-(trifluoromethyl)phenylsulfonyl)cyclobutyl)methyl)-1H-pyrazole-5-carboxamide] | 2790 | 1130 | 1630 |
| O=C(NC[C@H]1C[C@@H](S(=O)(=O)c2cccc(C(F)(F)F)c2)C1)c1ccc(F)c(Cl)c1 [Compound 379, 3-chloro-4-fluoro-N-(((1S,3S)-3-(3-(trifluoromethyl)phenylsulfonyl)cyclobutyl)methyl)benzamide] | 1810 | 830 | 300 |
| O=C(NC[C@H]1C[C@@H](S(=O)(=O)c2cccc(C(F)(F)F)c2)C1)c1ccnc(C(F)(F)F)n1 [Compound 383, 2-(trifluoromethyl)-N-(((1S,3S)-3-(3-(trifluoromethyl)phenylsulfonyl)cyclobutyl)methyl)pyrimidine-4-carboxamide] | > 10000 | 1360 | 5950 |
| O=C(NC[C@H]1C[C@@H](S(=O)(=O)c2cccc(C(F)(F)F)c2)C1)c1cn2cc(C(F)(F)F)ccc2n1 [Compound 384, 6-(trifluoromethyl)-N-(((1S,3S)-3-(3-(trifluoromethyl)phenylsulfonyl)cyclobutyl)methyl)imidazo[l,2-a]pyridine-2-carboxamide] | > 10000 | 960 | 4740 |
| O=C(NC[C@H]1C[C@@H](S(=O)(=O)c2cccc(C(F)(F)F)c2)C1)c1ccc(C(F)(F)F)cn1 [Compound 385, 5-(trifluoromethyl)-N-(((1S,3S)-3-(3-(trifluoromethyl)phenylsulfonyl)cyclobutyl)methyl)picolinamide] | > 10000 | 710 | > 10000 |
| O=C(NC[C@H]1C[C@@H](S(=O)(=O)c2cccc(C(F)(F)F)c2)C1)c1ccnc(C(F)(F)F)c1 [Compound 386, 2-(trifluoromethyl)-N-(((1S,3S)-3-(3-(trifluoromethyl)phenylsulfonyl)cyclobutyl)methyl)isonicotinamide] | 490 | 2370 | 270 |
| O=C(NC[C@H]1C[C@@H](S(=O)(=O)c2cccc(C(F)(F)F)c2)C1)c1ccnn1CC(F)(F)F [Compound 387, 1-(2,2,2-trifluoroethyl)-N-(((1S,3S)-3-(3-(trifluoromethyl)phenylsulfonyl)cyclobutyl)methyl)-1H-pyrazole-5-carboxamide] | 720 | 4220 | 710 |
| O=C(NC[C@H]1C[C@H](S(=O)(=O)c2cc(F)cc(C(F)(F)F)c2)C1)c1ccc(F)c(C(F)(F)F)c1 [Compound 389, 4-fluoro-N-(((1R,3R)-3-(3-fluoro-5-(trifluoromethyl)phenylsulfonyl)cyclobutyl)methyl)-3-(trifluoromethyl) benzamide] | 6080 | 270 | 8980 |
| O=C(Nc1ccc(Oc2ccc(F)c(Cl)c2)nc1)[C@H]1C[C@H](S(=O)(=O)c2cccc(C(F)(F)F)c2)C1 [Compound 399, (1R,3R)-N-(6-(3-chloro-4-fluorophenoxy)pyridin-3-yl)-3-(3-(trifluoromethyl)phenylsulfonyl)cyclobutane carboxamide] | 1250 | 1140 | 1060 |
| O=C(Nc1ccc(Oc2ccc(C(F)(F)F)cn2)nc1)[C@H]1C[C@H](S(=O)(=O)c2cccc(C(F)(F)F)c2)C1 [Compound 400, (1R,3R)-3-(3-(trifluoromethyl)phenylsulfonyl)-N-(6-(5-(trifluoromethyl)pyridin-2-yloxy)pyridin-3-yl) cyclobutanecarboxamide] | > 10000 | 3830 | 5920 |
| O=C(Nc1ccc(Oc2ccc(C(F)(F)F)nc2)nc1)[C@H]1C[C@H](S(=O)(=O)c2cccc(C(F)(F)F)c2)C1 [Compound 401, (1R,3R)-3-(3-(trifluoromethyl)phenylsulfonyl)-N-(6-(6-(trifluoromethyl)pyridin-3-yloxy)pyridin-3-yl) cyclobutanecarboxamide] | > 10000 | 1430 | 9260 |
| CC(C)(NC(=O)[C@H]1C[C@H](S(=O)(=O)c2cccc(C(F)(F)F)c2)C1)c1ccc(F)cc1 [Compound 402, (1R,3R)-N-(2-(4-fluorophenyl)propan-2-yl)-3-(3-(trifluoromethyl)phenylsulfonyl)cyclobutane carboxamide] | 640 | 1700 | 570 |
| COc1ccc(C(C)(C)NC(=O)[C@H]2C[C@H](S(=O)(=O)c3cccc(C(F)(F)F)c3)C2)cc1 [Compound 403, (1R,3R)-N-(2-(4-methoxyphenyl)propan-2-yl)-3-(3-(trifluoromethyl)phenylsulfonyl)cyclobutane carboxamide] | 1190 | 1460 | 1040 |
| Cn1nc(C(F)(F)F)cc1NC(=O)[C@H]1C[C@H](S(=O)(=O)c2cccc(C(F)(F)F)c2)C1 [Compound 407, (1R,3R)-N-(1-methyl-3-(trifluoromethyl)-1H-pyrazol-5-yl)-3-(3-(trifluoromethyl)phenylsulfonyl) cyclobutanecarboxamide] | > 10000 | 5630 | 1660 |
| Cn1nc(C(F)(F)F)cc1NC(=O)[C@H]1C[C@@H](S(=O)(=O)c2cccc(C(F)(F)F)c2)C1 [Compound 408, (1S,3S)-N-(1-methyl-3-(trifluoromethyl)-1H-pyrazol-5-yl)-3-(3-(trifluoromethyl)phenylsulfonyl)cyclobutane carboxamide] | 8000 | 2490 | 420 |
| O=C(Nc1cc(C(F)(F)F)ccn1)[C@H]1C[C@H](S(=O)(=O)c2cccc(C(F)(F)F)c2)C1 [Compound 409, (1R,3R)-3-(3-(trifluoromethyl)phenylsulfonyl)-N-(4-(trifluoromethyl)pyridin-2-yl)cyclobutanecarboxamide] | 2650 | 1690 | 3620 |
| O=C(Nc1cc(C(F)(F)F)ccn1)[C@H]1C[C@@H](S(=O)(=O)c2cccc(C(F)(F)F)c2)C1 [Compound 410, (1S,3S)-3-(3-(trifluoromethyl)phenylsulfonyl)-N-(4-(trifluoromethyl)pyridin-2-yl)cyclobutanecarboxamide] | 3490 | 1240 | 1790 |
| O=C(Nc1cccc(C(F)(F)F)n1)[C@H]1C[C@H](S(=O)(=O)c2cccc(C(F)(F)F)c2)C1 [Compound 411, (1R,3R)-3-(3-(trifluoromethyl)phenylsulfonyl)-N-(6-(trifluoromethyl)pyridin-2-yl)cyclobutanecarboxamide] | > 10000 | 1020 | 2430 |
| O=C(Nc1cccc(C(F)(F)F)n1)[C@H]1C[C@@H](S(=O)(=O)c2cccc(C(F)(F)F)c2)C1 [Compound 412, (1S,3S)-3-(3-(trifluoromethyl)phenylsulfonyl)-N-(6-(trifluoromethyl)pyridin-2-yl)cyclobutanecarboxamide] | 6810 | 590 | 1550 |
